Laboratory results reported in patent US20240109903A1, “SUBSTITUTED HETEROCYCLES FOR TREATING CANCER” (Northwestern University, priority 2022, published 2024).

What was measured:
[1] = test system: MOLT-4; assay: NCI 60 five-dose screen MOLT-4; assay type: cell-based; details: Homo sapiens, five-dose
[2] = test system: full NCI 60 cell panel; assay: NCI 60 Cell One-dose screen; assay type: cell-based, human; details: single high dose 10^−5 M, NCI 60 panel
Text: Compounds were submitted to the NCI 60 Cell screen and tested at a single high dose (10^−5 M) in the full NCI 60 cell panel (see the following reference for details of using NCI 60 human tumor cell lines for screening anticancer drugs: Shoemaker R H. The NCI60 human tumor cell line anticancer drug screen. Nature Rev Cancer 2006; 6: 813-23). The One-dose data is reported as a mean graph of the percent growth of treated cells. The number reported for the One-dose assay is growth relative to the no-drug control, and relative to the time zero number of cells. This allows detection of both growth inhibition (values between 0 and 100) and lethality (values less than 0). For example, a value of 100 means no growth inhibition. A value of 40 would mean 60% growth inhibition. A value of 0 means no net growth over the course of the experiment. A value of −40 would mean 40% lethality. A value of −100 means all cells are dead. FIGS. 1-8 show the mean graph of percent growth against the NCI-60 cell panel for NUCC-0226674, NUCC-0226679, NUCC-0226680, NUCC-0226683, NUCC-0226689, NUCC-0226694, NUCC-0226695, and NUCC-0226698.

[3] = test system: SNB-75; assay: NCI 60 five-dose screen SNB-75; assay type: cell-based; details: Homo sapiens, five-dose
[4] = test system: UACC-257; assay: NCI 60 five-dose screen UACC-257; assay type: cell-based; details: Homo sapiens, five-dose
[5] = test system: 786-0; assay: NCI 60 five-dose screen 786-0; assay type: cell-based; details: Homo sapiens, five-dose
[6] = test system: SF-539; assay: NCI 60 five-dose screen SF-539; assay type: cell-based; details: Homo sapiens, five-dose
[7] = test system: SK-MEL-28; assay: NCI 60 five-dose screen SK-MEL-28; assay type: cell-based; details: Homo sapiens, five-dose
[8] = test system: MDA-MB-231/ATCC; assay: NCI 60 five-dose screen MDA-MB-231/ATCC; assay type: cell-based; details: Homo sapiens, five-dose
[9] = test system: COLO 205; assay: NCI 60 five-dose screen COLO 205; assay type: cell-based; details: Homo sapiens, five-dose
[10] = test system: NCI-H460; assay: NCI 60 five-dose screen NCI-H460; assay type: cell-based; details: Homo sapiens, five-dose
[11] = test system: IGROV1; assay: NCI 60 five-dose screen IGROV1; assay type: cell-based; details: Homo sapiens, IGROV-1, five-dose
[12] = test system: SN12C; assay: NCI 60 five-dose screen SN12C; assay type: cell-based; details: Homo sapiens, five-dose
[13] = test system: LOX IMVI; assay: NCI 60 five-dose screen LOX IMVI; assay type: cell-based; details: Homo sapiens, five-dose
[14] = test system: UACC-62; assay: NCI 60 five-dose screen UACC-62; assay type: cell-based; details: Homo sapiens, five-dose
[15] = test system: A549/ATCC; assay: NCI 60 five-dose screen A549/ATCC; assay type: cell-based; details: Homo sapiens, five-dose
[16] = test system: NCI-H226; assay: NCI 60 five-dose screen NCI-H226; assay type: cell-based; details: Homo sapiens, five-dose
[17] = test system: UO-31; assay: NCI 60 five-dose screen UO-31; assay type: cell-based; details: Homo sapiens, five-dose
[18] = test system: HOP-62; assay: NCI 60 five-dose screen HOP-62; assay type: cell-based; details: Homo sapiens, five-dose
[19] = test system: RXF 393; assay: NCI 60 five-dose screen RXF 393; assay type: cell-based; details: Homo sapiens, five-dose
[20] = test system: HCC-2998; assay: NCI 60 five-dose screen HCC-2998; assay type: cell-based; details: Homo sapiens, five-dose
[21] = test system: SNB-19; assay: NCI 60 five-dose screen SNB-19; assay type: cell-based; details: Homo sapiens, five-dose
[22] = test system: U251; assay: NCI 60 five-dose screen U251; assay type: cell-based; details: Homo sapiens, U-251, five-dose
[23] = read-out: LC50 (the source's name) (converted)

FC(F)(F)CN1CCN(CCn2c(C(F)(F)F)cc3c(Cl)ncnc32)CC1 [NUCC-0226683]
GI50 [1]: 2.4 µM | IC50 [1]: 4.17 µM | IC (TGI) [1]: 9.12 µM | CC50 ([1]; read-out: LC50 (the source's name)): ≥ 100 µM | growth inhibition in the One-Dose Screen [2]: significant growth inhibition | GI50 [3]: 3.09 µM | IC50 [3]: 14.8 µM | IC (TGI) [3]: 14.1 µM | CC50 [3, 23]: 38.9 µM | GI50 [4]: 4.07 µM | IC50 [4]: 11 µM | IC (TGI) [4]: 17 µM | CC50 [4, 23]: 57.5 µM | GI50 [5]: 22.4 µM | IC50 [5]: 37.2 µM | IC (TGI) [5]: 60.3 µM | CC50 [5, 23]: ≥ 100 µM | GI50 [6]: 12.6 µM | IC50 [6]: 22.9 µM | IC (TGI) [6]: 28.8 µM | CC50 [6, 23]: 66.1 µM | GI50 [7]: 8.13 µM | IC50 [7]: 16.6 µM | IC (TGI) [7]: 37.2 µM | CC50 [7, 23]: ≥ 100 µM | GI50 [8]: 1.78 µM | IC50 [8]: 3.39 µM | IC (TGI) [8]: 4.27 µM | CC50 [8, 23]: 11.5 µM | GI50 [9]: 18.6 µM | IC50 [9]: 33.9 µM | IC (TGI) [9]: 45.7 µM | CC50 [9, 23]: ≥ 100 µM | GI50 [10]: 2.69 µM | IC50 [10]: 3.63 µM | IC (TGI) [10]: 6.76 µM | CC50 [10, 23]: 30.9 µM | GI50 [11]: 1.78 µM | IC50 [11]: 3.16 µM | IC (TGI) [11]: 3.55 µM | CC50 [11, 23]: 7.08 µM | GI50 [12]: 7.76 µM | IC50 [12]: 13.8 µM | IC (TGI) [12]: 22.9 µM | CC50 [12, 23]: 60.3 µM | GI50 [13]: 1.66 µM | IC50 [13]: 2.95 µM | IC (TGI) [13]: 3.09 µM | CC50 [13, 23]: 5.75 µM | GI50 [14]: 4.68 µM | IC50 [14]: 10 µM | IC (TGI) [14]: 18.2 µM | CC50 [14, 23]: 47.9 µM | GI50 [15]: 52.5 µM | IC50 [15]: 89.1 µM | IC (TGI) [15]: 100 µM | CC50 [15, 23]: ≥ 100 µM | GI50 [16]: 17.4 µM | IC50 [16]: 100 µM | IC (TGI) [16]: 72.4 µM | CC50 [16, 23]: ≥ 100 µM | GI50 [17]: 1.62 µM | IC50 [17]: 3.02 µM | IC (TGI) [17]: 3.24 µM | CC50 [17, 23]: 6.61 µM | GI50 [18]: 13.8 µM | IC50 [18]: 28.8 µM | IC (TGI) [18]: 32.4 µM | CC50 [18, 23]: 75.9 µM | GI50 [19]: 11 µM | IC50 [19]: 30.9 µM | IC (TGI) [19]: 28.2 µM | CC50 [19, 23]: 72.4 µM | GI50 [20]: 1.82 µM | IC50 [20]: 3.24 µM | IC (TGI) [20]: 3.31 µM | CC50 [20, 23]: 5.89 µM | GI50 [21]: 13.2 µM | IC50 [21]: 24 µM | IC (TGI) [21]: 26.9 µM | CC50 [21, 23]: 53.7 µM | GI50 [22]: 2.4 µM | IC50 [22]: 3.63 µM | IC (TGI) [22]: 6.46 µM | CC50 [22, 23]: 24 µM
